Measurements as given in patent US10905682B2, “Use of mitochondrial iron chelators for treatment of chronic obstructive pulmonary disease” (Cornell University, priority 2015, dated 2021).

Assays:
Assay type in all cases: in vivo, mouse
[1] = system: mice exposed to CS; test: Weight gain of CS-exposed mice treated with DFP; conditions: WT mice, CS 6 or 8 weeks, DFP after 4 weeks of CS, versus CS without DFP; FIG. 6d
Method: (§1) In vivo CS exposures, chemical treatments and diet modifications. Age- and sex-matched mice, starting at 6-12 weeks of age, were selected at random and exposed to total body CS in a stainless steel chamber using a whole-body smoke exposure device (Model TE-10 Teague Enterprises) for 2 hours per day, 5 days per week for 4 weeks or 4-6 months. Age-matched male and female mice were used for all CS exposures. Mice were exposed to CS (mainstream and side stream smoke) from 100 3R4F cigarettes (University of Kentucky), which correlated to an average total particulate matter (TPM) of 150 mg/m^3. For animals subjected to cigarette smoke exposure, early death was used as an exclusion criterion. At the end of the exposure regimen, mice were euthanized by CO2 narcosis, the tracheas cannulated and the lungs inflated with PBS at 25 cm of H2O pressure. The left lung was tied off with a suture, dissected and flash frozen and the right lung fixed in 4% formalin at 4° C. overnight. […]
(§2) Mice exposed to CS for 4 weeks had modifications to their dietary iron as follows: Diet 1 (Control Diet) from Harlan Laboratories (TD.94045 AIN-93G), which contained 300-ppm iron. […] Animals were weighed weekly and the quantity of chow consumed was recorded compared to mice on a normal iron diet. […] Animals were checked daily and the quantity of water consumed compared to control mice. […]

[2] = system: mice exposed to CS; test: BAL leukocyte counts, BALF protein and IL-33/IL-6 ELISA in CS-induced pulmonary inflammation and injury; conditions: WT mice, 4 weeks CS then DFP during additional 2 or 4 weeks of CS, versus CS without DFP
Method: (§3) In vivo CS exposures, chemical treatments and diet modifications. Age- and sex-matched mice, starting at 6-12 weeks of age, were selected at random and exposed to total body CS in a stainless steel chamber using a whole-body smoke exposure device (Model TE-10 Teague Enterprises) for 2 hours per day, 5 days per week for 4 weeks or 4-6 months. Age-matched male and female mice were used for all CS exposures. Mice were exposed to CS (mainstream and side stream smoke) from 100 3R4F cigarettes (University of Kentucky), which correlated to an average total particulate matter (TPM) of 150 mg/m^3. For animals subjected to cigarette smoke exposure, early death was used as an exclusion criterion. At the end of the exposure regimen, mice were euthanized by CO2 narcosis, the tracheas cannulated and the lungs inflated with PBS at 25 cm of H2O pressure. The left lung was tied off with a suture, dissected and flash frozen and the right lung fixed in 4% formalin at 4° C. overnight. A proximal portion of the left lung (4 month exposures only) was fixed for transmission electron microscopy (TEM) analysis.
Mice exposed to CS for 4 weeks had modifications to their dietary iron as follows: Diet 1 (Control Diet) from Harlan Laboratories (TD.94045 AIN-93G), which contained 300-ppm iron. Diet 2 (iron deficient diet) from Harlan Laboratories (TD.10210), which contained 2-6 ppm iron. Diet 3 (iron replete Diet) from Harlan Laboratories (TD.10213), which contained 2% carbonyl iron. Iron diets were exchanged for normal diets upon weaning at 3 weeks of age and used throughout the smoke exposures. Animals were weighed weekly and the quantity of chow consumed was recorded compared to mice on a normal iron diet. Deferiprone or FERRIPROX® solution (1mg/m1) (ApoPharma Inc.) was administered prophylactically in the animals' drinking water for the duration of smoke exposure. Deferiprone was also administered therapeutically in the animals' drinking water initiating therapy after 4 weeks of smoke exposure and continuing therapy for an additional 2-4 weeks. Animals were checked daily and the quantity of water consumed compared to control mice. Water solutions were changed twice weekly.
BALF isolation, cell counts and ELISA. Mice were euthanized by CO2 narcosis, the tracheas cannulated and the lungs lavaged with 0.5 ml increments of ice-cold PBS eight times (4 ml total). BALF was centrifuged at 500×g for 5 minutes. […] The cell pellet was resuspended in 500 μl PBS and leukocytes were counted using a hemocytometer. […] The percentage of macrophages, lymphocytes and polymorphonuclear leukocytes (PMNs) were counted in a total of 300 cells, and absolute numbers of each leukocyte subset were calculated. […]

[3] = system: lung mitochondrial non-heme iron; test: Lung mitochondrial non-heme iron in CS-exposed mice; conditions: WT mice, CS 6 or 8 weeks, DFP after 4 weeks of CS, versus CS without DFP; FIG. 6e
Method: as §1, with “criterion.” for “criterion. At the end of the exposure regimen, mice were euthanized by CO2 narcosis, the tracheas cannulated and the lungs inflated with PBS at 25 cm of H2O pressure. The left lung was tied off with a suture, dissected and flash frozen and the right lung fixed in 4% formalin at 4° C. overnight.”
as §2
Measurement of mitochondrial membrane potential and Cytochrome C oxidase activity. Mitochondrial-enriched fractions were isolated from the lungs of mice and JC1 uptake measured using the MITOISO1 mitochondrial isolation kit (Sigma Aldrich). […]

[4] = system: mice exposed to CS; test: CS-induced impairment of mucociliary clearance (MCC), CS-induced bronchitis model
Method: as §3
as §2, with “300-ppm iron. Diet 2 (iron deficient diet) from Harlan Laboratories (TD.10210), which contained 2-6 ppm” for “300-ppm”
Assessment of Mucociliary Clearance. Mucociliary clearance was quantified using a non-invasive, oropharyngeal aspiration procedure (Lam et al., The Journal of clinical investigation 123(12), 5212-5230 (2013)). […] Whole mouse 3D μ- single-photon emission computed tomography (SPECT) images from 10 minute acquisitions at 0, 1, and 3 hour time points were obtained, reconstructed, blindly analyzed and expressed as the percent removed by mucociliary clearance. […]

Cc1c(O)c(=O)ccn1C [DFP, Deferiprone]
weight gain [1]: improved weight gain
BAL total leukocyte counts (pulmonary inflammation) ([2]; FIG. 6f): significant reductions
total BALF protein (acute lung injury) ([2]; FIG. 6g): significant reductions
BALF IL-6 protein concentration (pulmonary inflammation) ([2]; FIG. 16e): significant reductions
BALF IL-33 protein concentration (pulmonary inflammation) ([2]; FIG. 16d): significant reductions
lung mitochondrial iron loading [3]: lower lung mitochondrial iron loading
CS-induced MCC impairment, DFP combined with IRP2 deficiency ([4]; DFP-treated Irp2-/- mice versus DFP or Irp2-/- alone, CS 1 month, FIG. 6c): better protection from CS-induced MCC impairment than DFP or Irp2−/− alone
CS-induced MCC impairment ([4]; prophylactic: DFP in drinking water for the duration of CS-exposure (1 month), WT mice, FIG. 6c): protected mice from CS-induced MCC impairment
experimental COPD (overall) ([4]; summary statement, CS-exposed mice): alleviated experimental COPD
